Experimental data reported in patent publication US20010039258A1, “Active agent transport systems” (Emisphere Technologies, Inc., priority 1990, published 2001).
Read-outs that look alike come from different tables or passages of the source. Values belong to the compound of their own block, whether it stands above or below them.

What was measured:
rhGH = rhGH (Homo sapiens, UniProt P01241); assay: Isothermal titration calorimetry of rhGH with perturbants; format: binding; details: 30° C.
Procedure: The ability of rhGh to complex with various perturbants was assessed by ITC using a Microcal Omega titrator, usually equilibrated at 30° C. The sample cell of the calorimeter was filled with degassed rhGH (usually at 0.25 mM) prepared in 50 mM phosphate buffer, pH 7.5 or 4.0. The perturbant (cyclohexanoyl chloride modified L-tyrosin (a), salicyloyl modified L-phenylalanine (b), or phenylsulfonyl-para-amino benzoic acid (c)) was then placed in the dropping syringe at 1 mM (for pH 7.5) and 2.5 mM, (for pH 4.0). Twenty to twenty-five 10 μl injections were made into rapidly mixing (400 rpm) solution with 2 minute intervals between injections.
Initial concentration of perturbant placed in the calorimeter sample cell assumed a formula weight of 200 for each perturbant. The pH of each solution was checked after dissolution, but no adjustments of the pH were required. All experiments were performed at 30° C. Initial concentration of rhGh placed in the dropping syringe assumed a molecular weight of 20,000 for rhGh. The pH of each solution was checked after dissolution, but no adjustment of the pH was required.
The heats of reaction were determined by integration of the observed peaks. To correct for heat of mixing and dilution, a control experiment was also performed under identical conditions where aliquots of the test perturbant or rhGh were added to buffer solution only.

α-interferon [1] = target: T1, α-interferon (Homo sapiens, UniProt P01563); assay: Perturbant binding DSC with α-interferon; details: α-interferon 0.64 mg/ml, pH 7.2
T1 construct: purchased Schering Plough Corp
T1 sequence (P01563 24-188): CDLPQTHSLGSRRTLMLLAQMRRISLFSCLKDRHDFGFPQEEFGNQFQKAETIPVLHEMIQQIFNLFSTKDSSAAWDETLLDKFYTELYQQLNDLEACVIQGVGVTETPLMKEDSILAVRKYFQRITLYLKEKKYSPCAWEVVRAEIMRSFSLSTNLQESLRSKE
Procedure: Perturbant binding DSC was conducted using 20 mM NaPhosphate buffer at pH 7.2. Dry perturbant was weighed out to make perturbant stock solutions. α-interferon stock was diluted in the buffer. α-interferon solution was not dialyzed prior to experiments for the purpose of having the same active concentration for the whole set.
DSC thermograms were generated with α-interferon at a concentration of 0.64 mg/ml and a perturbant (phenylsulfonyl-para-aminobenzoic acid purified to >98% (as determined by reverse phase chromatography prior to generation of the spectra)) at perturbant concentrations of 5, 10, 25 and 100 mg/ml. DSC was conducted on a DASM-4 differential scanning calorimeter interfaced to an IBM PC for automatic collection of the data. The scanning rate was 60° C./h.
The method of Example 19 was followed substituting α-interferon without perturbant. Results are illustrated in Table 9 below and FIG. 10. […]

α-interferon [2] = target: T1, α-interferon; assay: Isothermal titration calorimetry of perturbant complexing with α-interferon; format: binding; details: 25° C.; for result of complexing with α-interferon at pH 3: 20 mM NaAc; for n (1), # of complexed perturbant molecules: curve fitting, multiple independent sites
Procedure: Isothermal titration calorimetry of perturbant complexing with α-interferon was performed at 25° C. at two different pH's. The buffers used were 20 mM NaPhosphate for pH 7.2 and 20 mM NaAc for pH 3.0. α-interferon solution was dialyzed before the experiment to reach the appropriate pH. Dry perturbants were weighed and diluted in dialysate.
ITC was conducted on a MicroCal OMEGA titration calorimeter (MicroCal Inc.—Northampton, Mass.). Data points were collected every 2 seconds, without subsequent filtering. α-interferon solution placed in 1.3625 mL cell was titrated using a 250 μL syringe filled with concentrated perturbant solution. A certain amount of titrant was injected every 3-5 minutes for up to 55 injections.
A reference experiment to correct for the heat of mixing of two solutions, was performed identically except that the reaction cell was filled with buffer without active agent.
Analysis of the data was performed using the software developed at the Johns Hopkins University Biocalorimetry Center.
The titration at pH 7.2 included 53 injections of 2 μL of the perturbant of Example 30 (50 mg/mL=191.6 mM (MW 261)) and α-interferon (1.3 mg/mL=0.067 mM (MW 19400)).
The titration at pH 7.2 included two runs of […] each of 5 μL of perturbant (50 mg/mL=181 mM (FW 277)) and α-interferon (2.31 mg/mL=0.119 mM, (MW 19400)).
ITC was performed according to the method of Example 24 with 40 injections of 5 μL of the perturbant benzoyl para-amino phenylbutyric acid (7.5 mg/mL=24.59 mM, (FW 305)) and α-interferon (2.5 mg/mL=0.129 mM, (MW 19400)).

[3] = DSC of heparin, effect of ionic strength; format: physicochemical; details: pH 7.0
Procedure: (§1) Scanning calorimetry was performed using 5 mg 0.83 mM porcine insulin (MW 6,000) per mL in 50 mM phosphate buffer, pH 7.5. All thermograms were performed on a Microcal MC-2 scanning calorimeter equipped with the DA2 data acquisition system operated in the upscale mode at 1° C./min (up to 90° C.), and data points were collected at 20 second intervals. All scans were initiated at least 20 degrees below the observed transitions for the active agent. All thermograms were corrected for baseline subtraction and normalized for the concentration of macromolecule. According to the methods of the Johns Hopkins Biocalorimetry Center, See, for example, Ramsay et al. Biochemistry (1990) 29:8677-8693; Schon et al. Biochemistry (1989) 28:5019-5024 (1990) 29: 781-788. […]
(§2) Thermograms were corrected by subtraction of a heparin 0.05M NaCl-phosphate buffer blank, but an individual blank was not used for each NaCl concentration.

[4] = DSC of heparin, effect of pH; format: physicochemical
Procedure: as §1, with “All” for “Scanning calorimetry was performed using 5 mg 0.83 mM porcine insulin (MW 6,000) per mL in 50 mM phosphate buffer, pH 7.5. All”
as §2

[5] = DSC of heparin, effect of guanidine hydrochloride; format: physicochemical
Procedure: Scanning calorimetry was performed using 5 mg 0.83 mM porcine insulin (MW 6,000) per mL in 50 mM phosphate buffer, pH 7.5. All thermograms were performed on a Microcal MC-2 scanning calorimeter equipped with the DA2 data acquisition system operated in the upscale mode at 1° C./min (up to 90° C.), and data points were collected at 20 second intervals. All scans were initiated at least 20 degrees below the observed transitions for the active agent. All thermograms were corrected for baseline subtraction and normalized for the concentration of macromolecule. According to the methods of the Johns Hopkins Biocalorimetry Center, See, for example, Ramsay et al. Biochemistry (1990) 29:8677-8693; Schon et al. Biochemistry (1989) 28:5019-5024 (1990) 29: 781-788.
DSC thermograms of heparin at pH 5.0 were conducted according to the method of Example 9 using pH, GuHCl, and ionic strength as perturbants.
as §2

Sequence of rhGH (P01241 27-217): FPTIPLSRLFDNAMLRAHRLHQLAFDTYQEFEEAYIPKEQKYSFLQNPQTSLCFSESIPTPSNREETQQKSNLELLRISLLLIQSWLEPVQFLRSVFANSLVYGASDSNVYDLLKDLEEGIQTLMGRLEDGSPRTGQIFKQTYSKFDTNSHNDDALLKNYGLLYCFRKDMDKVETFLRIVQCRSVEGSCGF

Kd (rhGH; pH 4.0): 0.00161 µM | ΔH (rhGH; pH 4.0): -35.6 kcal/mol | ΔS (rhGH; pH 4.0): −90.0 eu | Kd (rhGH; pH 7.5): 1.11 µM | ΔH (rhGH; pH 7.5): +2.1 kcal/mol | ΔS (rhGH; pH 7.5): +35.0 eu
Compound: O=C(N[C@@H](Cc1ccccc1)C(=O)O)c1ccccc1O [B, salicyloyl modified L-phenylalanine]

Compound: O=C(O)c1ccc(NS(=O)(=O)c2ccccc2)cc1 [perturbant of Example 19, phenylsulfonyl-para-aminobenzoic acid]
Tm of α-interferon (α-interferon [1]; perturbant 5 mg/ml): 64.37 °C | ΔH of α-interferon (α-interferon [1]; perturbant 5 mg/ml): 60.151 kcal/mol | Tm of α-interferon (α-interferon [1]; perturbant 10 mg/ml): 62.3 °C | ΔH of α-interferon (α-interferon [1]; perturbant 10 mg/ml): 53.161 kcal/mol | Tm of α-interferon (α-interferon [1]; perturbant 25 mg/ml): 58.15 °C | ΔH of α-interferon (α-interferon [1]; perturbant 25 mg/ml): 35.393 kcal/mol | Tm of α-interferon (α-interferon [1]; perturbant 100 mg/ml): 46.18 °C | ΔH of α-interferon (α-interferon [1]; perturbant 100 mg/ml): 5.4393 kcal/mol | result of complexing with α-interferon at pH 3 (α-interferon [2]): precipitation of the complex out of the solution | log 10 Ka (1), Ka=association constant (α-interferon [2]; pH 7.2): 2.82 | ΔH (1) (α-interferon [2]; pH 7.2): −114.587 cal/Mole perturbant | n (1), # of complexed perturbant molecules (α-interferon [2]; pH 7.2): 55.12 | Kd (rhGH; pH 4.0): 0.0267 µM | ΔH (rhGH; pH 4.0): -1.2 kcal/mol | ΔS (rhGH; pH 4.0): −30.0 eu | Kd (rhGH; pH 7.5): 0.00111 µM | ΔH (rhGH; pH 7.5): +0.8 kcal/mol | ΔS (rhGH; pH 7.5): +44.0 eu

Compound: cyclohexanoyl chloride modified L-tyrosine
Kd (rhGH; pH 4.0): 78.1 µM | ΔH (rhGH; pH 4.0): -1.5 kcal/mol | ΔS (rhGH; pH 4.0): −5.6 eu | Kd (rhGH; pH 7.5): 98.8 µM | ΔH (rhGH; pH 7.5): +1.4 kcal/mol | ΔS (rhGH; pH 7.5): +23.5 eu

Tm of α-interferon (α-interferon [1]; perturbant 5 mg/ml): 63.00 °C | ΔH of α-interferon (α-interferon [1]; perturbant 5 mg/ml): 42.299 kcal/mol | Tm of α-interferon (α-interferon [1]; perturbant 10 mg/ml): 59.49 °C | ΔH of α-interferon (α-interferon [1]; perturbant 10 mg/ml): 43.058 kcal/mol | Tm of α-interferon (α-interferon [1]; perturbant 25 mg/ml): 52.79 °C | ΔH of α-interferon (α-interferon [1]; perturbant 25 mg/ml): 27.237 kcal/mol | ΔH of α-interferon (α-interferon [1]; perturbant 100 mg/ml): 0 kcal/mol | result of complexing with α-interferon at pH 3 (α-interferon [2]): negative enthalpy | ΔH (1) (α-interferon [2]; pH 7.2): 58.5932 cal/Mole perturbant | n (1), # of complexed perturbant molecules (α-interferon [2]; pH 7.2): 121.0354 | Kd (α-interferon [2]; pH 7.2, read-out: binding constant (Kd)): ~1000 µM | Kd (α-interferon [2]; pH 7.2, read-out: log 10 Ka (1), Ka=association constant (converted)): 2990 µM
Compound: O=C(NC(C(=O)O)c1ccccc1)C1CCCCC1 (stereo not drawn) [perturbant of Example 22, cyclohexanoyl phenylglycine]

ΔH ([3]; 0.0M NaCl): 72.9 kcal/mol | ΔHvH ([3]; 0.0M NaCl): 136.4 kcal/mol | Tm (Cp, max) ([3]; 0.0M NaCl, 20 μg/ml): 47.1 °C | Tm (Cp, max) ([3]; 0.25M NaCl): 46.1 °C | ΔH ([3]; 0.25M NaCl): not present | Tm (Cp, max) ([3]; 0.50M NaCl): 41.6 °C | ΔH ([3]; 0.50M NaCl): not present | Tm (Cp, max) ([3]; 0.75M NaCl): 27.5 °C | ΔH ([3]; 0.75M NaCl): not present | Tm (Cp, max) ([3]; 1.0M NaCl): no transition observed | ΔH ([4]; pH 6.0): 232.1 kcal/mol | ΔHvH ([4]; pH 6.0): 13.8 kcal/mol | Tm (Cp, max) ([4]; pH 6.0, 20 μg/ml in 50 mM phosphate): 62.5 °C | Tm (Cp, max) ([4]; pH 6.5, (a) domain): 62.7 °C | ΔH ([4]; pH 6.5, (a) domain): 213.9 kcal/mol | Tm (Cp, max) ([4]; pH 6.5, (b) domain): 71.8 °C | ΔH ([4]; pH 6.5, (b) domain): 751.9 kcal/mol | ΔHvH ([4]; pH 6.5, printed in line (b)): 56.8 kcal/mol | Tm (Cp, max) ([4]; pH 7.0, (a) domain): 47.1 °C | ΔH ([4]; pH 7.0, (a) domain): 187.1 kcal/mol | Tm (Cp, max) ([4]; pH 7.0, (b) domain): 72.9 °C | ΔH ([4]; pH 7.0, (b) domain): 136.4 kcal/mol | ΔHvH ([4]; pH 7.0, printed in line (b)): 27.6 kcal/mol | Tm (Cp, max) ([4]; pH 7.5): 66.2 °C | ΔH ([4]; pH 7.5): 499.4 kcal/mol | ΔHvH ([4]; pH 7.5): 83.8 kcal/mol | Tm (Cp, max) ([5]; 0.5M GuHCl): 50.5 °C | ΔH ([5]; 0.5M GuHCl): 287.3 kcal/mol | ΔHvH ([5]; 0.5M GuHCl): 170.9 kcal/mol | Tm (Cp, max) ([5]; 1.0M GuHCl): 60.5 °C | ΔH ([5]; 1.0M GuHCl): 415.0 kcal/mol | ΔHvH ([5]; 1.0M GuHCl): 97.1 kcal/mol | ΔH ([5]; 1.5M GuHCl): 1716.5 kcal/mol | ΔHvH ([5]; 1.5M GuHCl): 24.3 kcal/mol | ΔH ([5]; 2.0M GuHCl): 2533.7 kcal/mol | ΔHvH ([5]; 2.0M GuHCl): 19.2 kcal/mol | ΔH ([5]; no GuHCl): 499.4 kcal/mol | ΔHvH ([5]; no GuHCl): 83.8 kcal/mol | Tm (Cp, max) ([5]; no GuHCl, 50 mM phosphate): 67.2 °C
Compound: Heparin
